Experimental data reported in patent US20120316346A1, “SELENALZOLE DERIVATIVE HAVING LIGAND WHICH ACTIVATES PEROXISOME PROLIFERATOR ACTIVATED RECEPTOR (PPAR), PREPARING METHOD THEREOF AND USAGE OF THE CHEMICAL COMPOUNDS” (SNU R & DB FOUNDATION, priority 2010, published 2012).

Legend:
hPPARδ = molecular target: T1, hPPARδ (Homo sapiens, UniProt Q03181); assay: Transfection assay (luciferase reporter, full-length PPAR plasmid) in CV-1 cells, PPARδ; format: cell-based; conditions: 24 hours
T1 sequence (Q03181 1-441): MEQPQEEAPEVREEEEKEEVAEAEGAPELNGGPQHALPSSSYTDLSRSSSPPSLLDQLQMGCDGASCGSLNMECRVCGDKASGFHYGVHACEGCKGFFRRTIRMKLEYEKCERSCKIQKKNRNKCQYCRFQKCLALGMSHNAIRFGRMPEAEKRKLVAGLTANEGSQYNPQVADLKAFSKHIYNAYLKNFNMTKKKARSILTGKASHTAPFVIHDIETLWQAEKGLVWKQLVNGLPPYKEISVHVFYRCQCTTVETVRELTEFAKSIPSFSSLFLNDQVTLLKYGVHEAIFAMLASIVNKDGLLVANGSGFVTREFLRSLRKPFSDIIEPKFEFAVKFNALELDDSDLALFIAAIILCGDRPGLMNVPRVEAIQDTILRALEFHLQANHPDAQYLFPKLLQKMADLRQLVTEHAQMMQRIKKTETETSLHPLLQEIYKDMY
Protocol: (§1) PPARδ activation effect of the compound represented by Chemical Formula I according to the present invention was identified by transfection assay. Further, selectivity test for other PPAR subtypes PPARα and PPARγ, toxicity test by MTT assay, and in vivo activity test through animal experiment were carried out. CV-1 cells were used for transfection assay. The cells were cultured in a 5% CO2 incubator at 37° C., on a 96-well plate using DMEM medium containing 10% FBS, DBS (delipidated) and 1% penicillin/streptomycin. Experiment was performed in four stages of cell inoculation, transfection, treatment with the compound of the present invention, and confirmation of result. The CV-1 cells inoculated onto a 96-well plate at 5,000 cells/well, and transfected 24 hours later. Transfection assay was performed using full-length PPAR plasmid DNA, reporter DNA having luciferase activity and thus capable of identifying PPAR activity, and β-galactosidase DNA which gives information about transfection efficiency. […] After culturing for 24 hours in an incubator, the cells were lysed using lysis buffer, and luciferase and β-galactosidase activity was measured using a luminometer and a microplate reader. The measured luciferase data were corrected using the β-galactosidase data, and were plotted to calculate the EC50 value.

hPPARα = molecular target: T2, hPPARα (Homo sapiens, UniProt Q07869); assay: Transfection assay (luciferase reporter, full-length PPAR plasmid) in CV-1 cells, PPARα selectivity; format: cell-based; conditions: 24 hours
T2 sequence (Q07869 1-468): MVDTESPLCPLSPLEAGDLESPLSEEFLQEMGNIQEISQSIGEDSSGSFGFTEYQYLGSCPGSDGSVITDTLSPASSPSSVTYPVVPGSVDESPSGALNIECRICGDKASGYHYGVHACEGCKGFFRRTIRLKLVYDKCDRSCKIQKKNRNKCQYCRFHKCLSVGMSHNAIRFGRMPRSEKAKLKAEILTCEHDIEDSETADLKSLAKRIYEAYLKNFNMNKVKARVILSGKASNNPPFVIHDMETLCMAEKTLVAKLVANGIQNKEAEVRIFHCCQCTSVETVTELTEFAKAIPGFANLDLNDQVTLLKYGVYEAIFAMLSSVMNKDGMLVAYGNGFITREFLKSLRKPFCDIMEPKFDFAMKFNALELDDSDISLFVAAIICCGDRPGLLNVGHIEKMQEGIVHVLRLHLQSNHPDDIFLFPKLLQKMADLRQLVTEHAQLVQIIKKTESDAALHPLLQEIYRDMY
Protocol: as §1

hPPARγ = molecular target: T3, hPPARγ (Homo sapiens, UniProt P37231); assay: Transfection assay (luciferase reporter, full-length PPAR plasmid) in CV-1 cells, PPARγ selectivity; format: cell-based; conditions: 24 hours
T3 sequence (P37231 1-505): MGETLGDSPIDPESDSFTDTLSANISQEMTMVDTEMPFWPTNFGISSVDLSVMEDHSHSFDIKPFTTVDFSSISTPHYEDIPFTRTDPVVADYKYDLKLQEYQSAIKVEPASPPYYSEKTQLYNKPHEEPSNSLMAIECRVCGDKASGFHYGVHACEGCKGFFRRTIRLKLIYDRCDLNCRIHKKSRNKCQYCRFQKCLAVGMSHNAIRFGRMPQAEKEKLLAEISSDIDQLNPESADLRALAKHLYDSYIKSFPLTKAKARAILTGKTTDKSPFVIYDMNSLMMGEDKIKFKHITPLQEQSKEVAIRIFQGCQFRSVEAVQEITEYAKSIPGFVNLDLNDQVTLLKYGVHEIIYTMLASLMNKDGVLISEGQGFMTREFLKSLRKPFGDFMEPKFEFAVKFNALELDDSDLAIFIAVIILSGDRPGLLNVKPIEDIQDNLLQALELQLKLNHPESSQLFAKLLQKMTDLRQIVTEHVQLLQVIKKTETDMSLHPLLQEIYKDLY
Protocol: as §1

[1] = Obesity inhibiting effect, high-fat feed mice; format: in vivo, mouse; conditions: C57BL/6 mice, 35% fat feed 60 days, 10 mg/kg/day oral
Protocol: In order to test in vivo effect of the compound according to the present invention, experiment was carried out using mouse. 8-week-old C57BL/6 (SLC Co.) mice were used and feed containing 35% fat was used to induce obesity. While giving the high-fat feed for 60days, vehicle, Compound S185 or Compound S186 was orally administered (10 mg/kg/day).

ApoE−/− mice = assay: Atherosclerosis inhibiting effect, ApoE−/− mice (Sudan IV arterial plaque staining); format: in vivo; conditions: ApoE−/− mouse, high-fat high-cholesterol feed, 2 mg/kg/day oral, 28 days
Protocol: (§2) In order to test atherosclerosis inhibiting effect of the compound according to the present invention, in vivo experiment was carried out using atherosclerosis animal model ApoE−/−, Ldlr−/−mice. While giving high-fat, high-cholesterol feed (20% fat, 1.25% cholesterol; AIN-93G diet), the compound of the present invention (Compound S185) was orally administered at 2 mg/kg/day. 28 days later, arterial plaque was stained using Sudan IV, and the atherosclerosis inhibiting effect was compared with the control group.

Ldlr−/− mice = assay: Atherosclerosis inhibiting effect, Ldlr−/− mice (Sudan IV arterial plaque staining); format: in vivo; conditions: Ldlr−/− mouse, high-fat high-cholesterol feed, 2 mg/kg/day oral, 28 days
Protocol: as §2

[2] = Diabetes improving effect, glucose tolerance test (GTT); format: in vivo, mouse; conditions: for Fasting glucose level as compared to the control group: 10 mg/kg/day oral for 57 days; for Diabetes improving effect: GTT, overall conclusion
Protocol: In order to test diabetes improving effect of the compound according to the present invention, glucose tolerance test (GTT) was carried out. To a mouse to which the test compound had been orally administered for 57 days, glucose (1.5 g/kg) was abdominally administered and change of blood glucose level was monitored.

mouse = assay: Muscle endurance test (treadmill) after administration during pregnancy, lactation or both; format: in vivo; conditions: for Body weight or growth rate of the fetus, treated versus control group / Type I muscle fiber (ATPase staining and immunostaining): 10 mg/kg/day oral during pregnancy, lactation or both; for Increase compared to control, Distance / Increase compared to control, Time: treadmill, 10 mg/kg/day oral
Protocol: Animal experiment was carried out in order to test muscle endurance strengthening and muscle function improving effect of the compound according to the present invention. Since muscle formation occurs mostly in the developmental stage, Compound S185 or S186 (10 mg/kg/day) was orally administered to a mouse during pregnancy, lactation or both. No difference in body weight or growth rate of the fetus was observed between the control group and the treated group. When the muscle was observed after removing the skin, the muscle of the treated group was redder than the control group. […] In order to confirm the effect of the change in the muscle fiber on improvement of muscle endurance and muscle function, test was performed using a treadmill.

C57BL/6 mouse [3] = assay: Muscle endurance and muscle function in adult exercising mice (treadmill); format: in vivo; conditions: 10-week-old C57BL/6 mouse, 10 mg/kg oral, treadmill exercise 30 days
Protocol: Further, improvement of muscle endurance and muscle function was confirmed when the compound according to the present invention was administered to an adult. 10-week-old C57BL/6 mouse was let to exercise while orally administering Compound S185 or S186 (10 mg/kg). The mouse was let to exercise on a treadmill for 30 days, once a day for 30 minutes. Exercise condition was 5 minutes at 2 m/min, 5 minutes at 5 m/min, 5 minutes at 8 m/min, followed by 5 minutes at 20 m/min. At the end of the test, muscle endurance strengthening and muscle function improving effect was tested using a treadmill.

C57BL/6 mouse [4] = assay: Memory improving effect, Morris water maze test in LPS brain disease model; format: in vivo
Protocol: Animal (8-week-old C57BL/6 mouse) experiment was carried out in order to test the effect of the compound according to the present invention of treating dementia and Parkinson's disease through improvement of memory. Before performing experiment, an animal model of brain disease was established by injecting LPS into the brain by stereotaxy. Test groups were divided depending on the administration of the test compound and exercise. Exercise condition was 5 minutes at 2 m/min, 5 minutes at 5 m/min, 5 minutes at 8 m/min, followed by 5 minutes at 20 m/min. Morris water maze test was performed at the end of the test. It was confirmed that the compound according to the present invention and exercise are effective in treating dementia and Parkinson's disease through improvement of memory.

C57BL/6 mouse [5] = assay: Fatty liver treating effect, high-fat feed mice (H&E liver staining); format: in vivo; conditions: 35% fat feed 78 days, 10 mg/kg/day oral
Protocol: Animal (8-week-old C57BL/6 mouse) experiment was carried out in order to test fatty liver treating effect of the compound according to the present invention. Feed containing 35% fat was used to induce fatty liver. While giving the high-fat feed for 78 days, Compound S185 was orally administered (10 mg/kg/day). At the end of the experiment, liver tissue was harvested and fixed in paraformaldehyde solution and then stained with hematoxylin and eosin.

[6] = administered during Pregnancy + lactation

| SMILES | EC50 (hPPARδ) | EC50 hPPARα (hPPARα) | EC50 hPPARγ (hPPARγ) | Body weight increase as compared to the vehicle group [1] | Atherosclerosis inhibiting effect improved as compared to the control group (ApoE−/− mice) | Atherosclerosis inhibiting effect improved (Ldlr−/− mice) | Fasting glucose level as compared to the control group [2] | Diabetes improving effect [2] | Body weight or growth rate of the fetus, treated versus control group (mouse) | Type I muscle fiber (ATPase staining and immunostaining) (mouse) | Increase compared to control, Distance (mouse; administered during Lactation) | Increase compared to control, Time (mouse; administered during Lactation) | Increase compared to control, Distance (mouse; [6]) | Increase compared to control, Time (mouse; [6]) | Increase compared to control, Distance (mouse; administered during Pregnancy) | Increase compared to control, Time (mouse; administered during Pregnancy) | Exercise time and distance as compared to the control group (C57BL/6 mouse [3]) | Water maze test result (C57BL/6 mouse [4]; Exercise (o)) | Water maze test result (C57BL/6 mouse [4]; Exercise (x)) | Fatty liver treating effect (H&E stained liver tissue, FIG. 1) (C57BL/6 mouse [5]) |
| --- | --- | --- | --- | --- | --- | --- | --- | --- | --- | --- | --- | --- | --- | --- | --- | --- | --- | --- | --- | --- |
| Cc1cc(SCc2[se]c(-c3ccc(C(F)(F)F)cc3)nc2C)ccc1OCC(=O)O [Compound S185] | 0.66 nM | ia | ia | 39% | 60% | 36% | lower fasting glucose level | effective in improving diabetes | No difference | increased type I muscle fiber | 2.6 times | 2.1 times | 3.9 times | 3.7 times | 2.7 times | 2.3 times | improvement both in exercise time and distance | 14 s | 20 s | effective in preventing fatty liver |
| Cc1cc([Se]Cc2[se]c(-c3ccc(C(F)(F)F)cc3)nc2C)ccc1OCC(=O)O [Compound S186] | 4.27 nM | ia | ia | 42% |  |  | lower fasting glucose level | effective in improving diabetes | No difference | increased type I muscle fiber | 2.0 times | 1.8 times | 3.3 times | 3.1 times | 2.1 times | 2.1 times | improvement both in exercise time and distance | 16 s | 27 s |  |
